Data: US20250135042A1, “Perfluorocarbon-Containing Contrast Agent for Use in MRI Imaging of Body Cavities” (University of Pittsburgh - Of the Commonwealth System of …, priority 2023, published 2025)

Legend:
[1] = 1H relaxivity of serial two-fold dilutions in tubes, from T1 weighted images; format: physicochemical; conditions: 7 Tesla, 37° C.
Experimental: FIGS. 2A and 2B: Graphical plots and T1 weighted images of individual tubes containing serial two-fold dilutions of Gadobutrol without ≥10% w/v PFC emulsion (FIG. 2A) or with ≥10% w/v PFC emulsion (FIG. 2B) display that ≥10% PFC emulsion diminishes the ^1H relaxivity of Gadobutrol from 3.95 L/mmol/s (FIG. 2A) to 2.05 L/mmol/s (FIG. 2B) at 7 Tesla scanner. T1 relaxation rate of water protons (R1=1/T1) was calculated from the slope of the line plotted by computing T1 relaxation time from T1 weighted images acquired at identical magnetic field strength of 7 Tesla at 37° C.
While gadolinium chelates are characterized by longitudinal and transverse relaxivity, denoted r1 and r2, respectively, (sensitivity to improve image contrast) gadolinium chelates are generally referred to as T1 agents owing to their larger effect on tissue T1 than on T2 for positive image contrast in T1-weighted images.

Stokes-Einstein radius = format: physicochemical

## O=C([O-])CN1CCN(CC(=O)[O-])CCN([C@H](CO)[C@H](O)CO)CCN(CC(=O)[O-])CC1.[Gd+3] (racemic) [Gadobutrol, gadobutrol]
[1]; with ≥10% w/v PFC emulsion
  1H relaxivity of Gadobutrol: 2.05 L/mmol/s
[1]; without ≥10% w/v PFC emulsion
  1H relaxivity of Gadobutrol: 3.95 L/mmol/s
Stokes-Einstein radius
  Stokes-Einstein radius (median for the emulsion particles): 0.4 nm
